The values that follow come from PubChem BioAssay (NCI).

Structures are written as SMILES.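 Interpolation was linear, between the two tested concentrations surrounding the appropriate level; five concentrations were tested over 48 hours in 96-well plates. TGI is the concentration that stops growth completely.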

Test in all cases: inhibition of tumour cell growth, NCI panel, 48 h
In assay [1] the test system is A498 renal.
Assay [2] has as its system ACHN renal.
Assay [3] relates to EKVX NSCLC.
In assay [4] the test system is HCT-116 colon.
The subject of assay [5] is HT29 colon.
The test system of assay [6] is LOX IMVI melanoma.
Assay [7] concerns MCF7 breast.
The test system of assay [8] is MDA-MB-231 breast.
The test system of assay [9] is OVCAR-3 ovarian.
For assay [10], the system named is OVCAR-4 ovarian.
The subject of assay [11] is PC-3 prostate.
Assay [12] relates to RXF 393 renal.
For assay [13], the system named is SK-MEL-28 melanoma.
The subject of assay [14] is SK-OV-3 ovarian.
For assay [15], the system named is SW-620 colon.
The test system of assay [16] is TK-10 renal.
The test system of assay [17] is U251 CNS.
Assay [18] deals with UACC-257 melanoma.
In assay [19] the test system is UACC-62 melanoma.
For assay [20], the system named is UO-31 renal.

For `O=C1CCSc2nc(-c3ccc4c(c3)OCO4)nn21`, the TGI in [1], in assay [2], in assay [3], in [4], in assay [5] and in assay [6] was above 10 µM throughout. Besides, the TGI in assay [7], in assay [8], in assay [9], in assay [10], in assay [11] and in assay [12] was above 10 µM each time. Further, the TGI in assay [13], in assay [14], in assay [15], in [16], in [17] and in assay [18] was above 10 µM throughout. In assay [19], this molecule showed a TGI above 10 µM.
For the molecule `CC(C)CC(NC=O)C(=O)NC(Cc1ccccc1)NC(=O)CNC(=O)C(C)NC(=O)C(N)Cc1ccc(O)cc1` (stereo not given), the TGI in assay [1], in assay [2], in [3], in assay [4], in assay [5] and in [6] was above 100 µM each time. In addition, the TGI in [7], in assay [8], in [9], in assay [10], in [11] and in [12] was above 100 µM in each case. In addition, the TGI in assay [13], in [14], in assay [15], in assay [16], in assay [17] and in assay [19] was above 100 µM each time. The TGI in assay [20] is above 100 µM.
Turning to `O=C1CCN2C(=N1)Sc1ccccc12`, the TGI in assay [2], in assay [3], in assay [4], in assay [5], in assay [6] and in assay [7] was above 100 µM throughout. Moreover, the TGI in assay [8], in assay [9], in [10], in assay [11], in [12] and in assay [13] was above 100 µM each time. Also, the TGI in [14], in [15], in assay [16], in assay [17], in assay [18] and in assay [19] was above 100 µM throughout.
Regarding `CCCCCCCc1cscc1-c1cscc1Br`, the TGI was above 100 µM in assay [1]; above 100 µM in assay [2]; above 100 µM in [3]; above 100 µM in assay [4]; 36.4 µM in assay [6]; above 100 µM in [7]. Also, the TGI in assay [8] was above 100 µM; in [10] it was above 100 µM; in assay [11], above 100 µM; in assay [12] it was 67 µM; in assay [13] it was above 100 µM; in [14] it was above 100 µM. The TGI in [15], in assay [16], in [17], in assay [18], in assay [19] and in [20] was above 100 µM each time.
Turning to `CN1CC=C(c2cccn2C)CC1`, the TGI in assay [2], in assay [3], in [4], in assay [5], in assay [6] and in assay [7] was above 100 µM each time. The TGI in assay [8], in assay [9], in assay [10], in [11], in [12] and in assay [13] was above 100 µM in each case. In addition, the TGI in [14], in assay [15], in assay [16], in assay [17], in assay [18] and in assay [19] was above 100 µM throughout. The molecule also registered a TGI in assay [20] above 100 µM.
For the molecule `COc1ccc2c(c1)-c1nc(=O)n(CCCN(C)C)c3ccc([N+](=O)[O-])c(c13)N2`, the TGI in assay [1] came out at 31 µM; in assay [2], 15 µM; in [3], 6.45 µM; in [4] it was 12.8 µM; in assay [5], 12.2 µM; in assay [6], 3.24 µM. The TGI stood at 18.2 µM in [7]; 2.09 µM in assay [8]; 19.4 µM in assay [9]; 7.34 µM in [10]; 20.9 µM in assay [11]; 4.3 µM in assay [13]. Also, the TGI was 17.3 µM in assay [14]; above 44.3 µM in assay [15]; 7.17 µM in [16]; 9.03 µM in assay [17]; 6.85 µM in [18]; 25.2 µM in assay [19]. This molecule also came in with a TGI in assay [20] of 4.73 µM.
On to `COc1ccccc1NC(=O)C(=O)Cc1cnc2ccccc2n1`, for which the TGI in assay [1], in assay [2], in assay [4], in assay [5], in assay [6] and in assay [7] was above 100 µM throughout. For the same molecule, the TGI in assay [8], in assay [9], in assay [10], in assay [11], in [12] and in [13] was above 100 µM throughout. The TGI in assay [14], in assay [15], in assay [17], in assay [18], in [19] and in assay [20] was above 100 µM each time.
